Laboratory results reported in ChEMBL document CHEMBL4673260, “Pyridine alkaloids with activity in the central nervous system” (Bioorg Med Chem, 2020).

Columns and labels:
D(3) dopamine receptor = D(3) dopamine receptor (Homo sapiens, UniProt P35462); assay: Inhibition of human dopamine D3 receptor expressed in CHO-K1 cells at 10 uM relative to control; assay type: cell-based
[1] = target: Neuronal acetylcholine receptor; alpha4/beta2 (Rattus norvegicus, UniProt P09483+P12390)
Description: Agonist activity at alpha4beta2 nAChR in rat frontal cortex membrane

[2] = target: Type-1 angiotensin II receptor (Homo sapiens) (UniProt P30556); assay: Inhibition of human AT1 receptor expressed in CHO-K1 cells at 10 uM relative to control; assay type: cell-based
Homo sapiens [3] = species on record: Homo sapiens; assay: Inhibition of Glutamate receptor ionotropic kainate site (unknown origin) at 10 uM relative to control
Homo sapiens [4] = species on record: Homo sapiens; assay: Inhibition of human adenosine transporter at 10 uM relative to control
[5] = target: Adenosine receptor A1 (Homo sapiens) (UniProt P30542); assay: Inhibition of human adenosine receptor A1 expressed in CHO-K1 cells at 10 uM relative to control; assay type: cell-based
[6] = target: Thromboxane A2 receptor (Homo sapiens) (UniProt P21731); assay: Inhibition of human Thromboxane A2 at 10 uM relative to control
Acetylcholinesterase = Acetylcholinesterase (Homo sapiens, UniProt P22303); assay: Inhibition of acetylcholinesterase (unknown origin) at 10 uM relative to control
[7] = target: 5-hydroxytryptamine receptor 1D (Homo sapiens) (UniProt P28221); assay: Inhibition of 5HT-1D receptor (unknown origin) at 10 uM relative to control
hERG (KCNH2) = hERG (KCNH2) (Homo sapiens, UniProt Q12809); assay: Inhibition of human ERG in HEK293 cells at 10 uM relative to control; assay type: cell-based; conditions: HEK293 cells that express hERG
Homo sapiens [8] = species on record: Homo sapiens; assay: Inhibition of sodium channel site2 (unknown origin) at 10 uM relative to control
[9] = target: Sigma intracellular receptor 2 (Homo sapiens) (UniProt Q5BJF2); assay: Inhibition of sigma 2 receptor (unknown origin) at 10 uM relative to control
[10] = target: Alpha-2C adrenergic receptor (Homo sapiens) (UniProt P18825); assay: Inhibition of human adrenergic receptor alpha2C expressed in CHO-K1 cells at 10 uM relative to control; assay type: cell-based
[11] = target: Substance-P receptor (Homo sapiens) (UniProt P25103); assay: Inhibition of human NK1 at 10 uM relative to control
Homo sapiens [12] = species on record: Homo sapiens; assay: Inhibition of Calcium-activated potassium channel channel (unknown origin); conditions: concentration not given here
[13] = target: T1, 5-hydroxytryptamine receptor 2A (Homo sapiens, UniProt P28223); assay: Inhibition of human 5HT-2A receptor at 10 uM relative to control
[14] = target: T1, 5-hydroxytryptamine receptor 2A; assay: Inhibition of human 5HT-2A receptor expressed in CHO-K1 cells at 10 uM relative to control; assay type: cell-based
[15] = target: Gamma-aminobutyric acid type B receptor subunit 1 (Homo sapiens) (UniProt Q9UBS5); assay: Inhibition of human GABA-B1 at 10 uM relative to control
[16] = target: Protein kinase C alpha type (Homo sapiens) (UniProt P17252); assay: Inhibition of human protein kinase Ca at 10 uM relative to control
Homo sapiens [17] = species on record: Homo sapiens; assay: Inhibition of Glutamate receptor ionotropic NMDA agonist site (unknown origin) at 10 uM relative to control
[18] = Induction of contextual fear extinction in fear-conditioned C57/BlJ6 mouse assessed as decrease in initial freezing behavior at 5 mg/kg administered for 1 week by contextual fear conditioning assay; assay type: functional; parameters: scale not given: the % may be the effect or the level left; conditions: time 1 weeks
[19] = target: Endothelin-1 receptor (Homo sapiens) (UniProt P25101); assay: Inhibition of human ET-A at 10 uM relative to control
[20] = target: Alpha-1A adrenergic receptor (Homo sapiens) (UniProt P35348); assay: Inhibition of human adrenergic receptor alpha1A expressed in CHO-K1 cells at 10 uM relative to control; assay type: cell-based
[21] = target: Muscarinic acetylcholine receptor M3 (Homo sapiens, UniProt P20309); assay: Inhibition of human muscarinic M3 receptor expressed in CHO-K1 cells at 10 uM relative to control; assay type: cell-based
[22] = target: Sigma non-opioid intracellular receptor 1 (Homo sapiens) (UniProt Q99720); assay: Inhibition of sigma 1 receptor (unknown origin) at 10 uM relative to control
[23] = target: Adenosine receptor A2a (Homo sapiens) (UniProt P29274); assay: Inhibition of human adenosine receptor A2A expressed in HEK293 cells at 10 uM relative to control; assay type: cell-based
L-type calcium channel = L-type calcium channel (Homo sapiens, UniProt O60840+Q01668+Q13698+Q13936); assay: Inhibition of L-type calcium channel (unknown origin) at 10 uM relative to control; assay type: protein assay
Homo sapiens [24] = species on record: Homo sapiens; assay: Inhibition of Glutamate receptor ionotropic NMDA phencyclidine site (unknown origin) at 10 uM relative to control
[25] = target: Histamine H1 receptor (Homo sapiens) (UniProt P35367); assay: Inhibition of human histamine H1 receptor expressed in CHO-K1 cells at 10 uM relative to control; assay type: cell-based
[26] = target: Leukotriene B4 receptor 1 (Homo sapiens) (UniProt Q15722); assay: Inhibition of human BLT expressed in CHO-K1 cells at 10 uM relative to control; assay type: cell-based
[27] = target: cGMP-specific 3',5'-cyclic phosphodiesterase (Homo sapiens) (UniProt O76074); assay: Inhibition of human PDE5A1 at 10 uM relative to control
Homo sapiens [28] = species on record: Homo sapiens; assay: Inhibition of human delta 2-type opioid receptor at 10 uM relative to control
[29] = target: Muscarinic acetylcholine receptor M1 (Homo sapiens) (UniProt P11229); assay: Inhibition of human muscarinic M1 receptor expressed in CHO-K1 cells at 10 uM relative to control; assay type: cell-based
Homo sapiens [30] = species on record: Homo sapiens; assay: Inhibition of human PDE3A1A at 10 uM relative to control
Homo sapiens [31] = species on record: Homo sapiens; assay: Inhibition of GABA receptor chloride/TBOB site (unknown origin) at 10 uM relative to control
[32] = target: Sodium-dependent dopamine transporter (Homo sapiens) (UniProt Q01959); assay: Inhibition of human dopamine transporter expressed in CHO-K1 cells at 10 uM relative to control; assay type: cell-based
[33] = Half life in human; assay type: ADME
[34] = target: Muscarinic acetylcholine receptor M2 (Homo sapiens) (UniProt P08172); assay: Inhibition of human muscarinic M2 receptor expressed in CHO-K1 cells at 10 uM relative to control; assay type: cell-based
Histamine H3 receptor = Histamine H3 receptor (Homo sapiens, UniProt Q9Y5N1); assay: Inhibition of human histamine H3 receptor expressed in CHO-K1 cells at 10 uM relative to control; assay type: cell-based
Homo sapiens [35] = species on record: Homo sapiens; assay: Inhibition of N-type calcium channel (unknown origin) at 10 uM relative to control
[36] = target: Neuropeptide Y receptor type 2 (Homo sapiens) (UniProt P49146); assay: Inhibition of human NPY2R expressed in CHO-K1 cells at 10 uM relative to control; assay type: cell-based
[37] = target: Beta-1 adrenergic receptor (Homo sapiens) (UniProt P08588); assay: Inhibition of human adrenergic receptor beta1 expressed in CHO-K1 cells at 10 uM relative to control; assay type: cell-based
[38] = target: B2 bradykinin receptor (Homo sapiens) (UniProt P30411); assay: Inhibition of BKR2 (unknown origin) at 10 uM relative to control

T1 sequence (P28223 whole entry): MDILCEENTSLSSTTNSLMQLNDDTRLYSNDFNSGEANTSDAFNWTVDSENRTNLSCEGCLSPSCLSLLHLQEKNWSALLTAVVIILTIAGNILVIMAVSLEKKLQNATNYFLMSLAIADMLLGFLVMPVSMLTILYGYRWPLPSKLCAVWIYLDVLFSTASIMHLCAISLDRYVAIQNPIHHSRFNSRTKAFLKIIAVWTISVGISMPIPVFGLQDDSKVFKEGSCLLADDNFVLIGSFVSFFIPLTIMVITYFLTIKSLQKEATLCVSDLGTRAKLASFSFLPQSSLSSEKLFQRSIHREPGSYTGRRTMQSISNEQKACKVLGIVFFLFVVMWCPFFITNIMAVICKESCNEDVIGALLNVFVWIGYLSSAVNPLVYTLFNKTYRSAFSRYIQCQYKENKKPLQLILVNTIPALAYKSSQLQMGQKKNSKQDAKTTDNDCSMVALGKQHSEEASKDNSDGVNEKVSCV
Beta-1 adrenergic receptor (Homo sapiens), sequence (P08588 whole entry, looked up): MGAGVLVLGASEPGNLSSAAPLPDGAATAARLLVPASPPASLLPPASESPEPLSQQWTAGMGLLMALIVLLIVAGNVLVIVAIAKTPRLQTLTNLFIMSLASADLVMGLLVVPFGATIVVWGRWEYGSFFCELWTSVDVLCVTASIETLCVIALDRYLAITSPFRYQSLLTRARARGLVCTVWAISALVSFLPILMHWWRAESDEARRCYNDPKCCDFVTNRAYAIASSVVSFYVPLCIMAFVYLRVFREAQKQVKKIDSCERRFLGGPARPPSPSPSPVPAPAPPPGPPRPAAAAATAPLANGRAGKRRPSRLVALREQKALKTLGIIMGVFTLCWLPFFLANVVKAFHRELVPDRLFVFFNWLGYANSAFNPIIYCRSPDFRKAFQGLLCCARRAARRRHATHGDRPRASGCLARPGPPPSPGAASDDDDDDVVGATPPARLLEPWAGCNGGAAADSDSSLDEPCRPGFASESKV
D(3) dopamine receptor, sequence (P35462 whole entry): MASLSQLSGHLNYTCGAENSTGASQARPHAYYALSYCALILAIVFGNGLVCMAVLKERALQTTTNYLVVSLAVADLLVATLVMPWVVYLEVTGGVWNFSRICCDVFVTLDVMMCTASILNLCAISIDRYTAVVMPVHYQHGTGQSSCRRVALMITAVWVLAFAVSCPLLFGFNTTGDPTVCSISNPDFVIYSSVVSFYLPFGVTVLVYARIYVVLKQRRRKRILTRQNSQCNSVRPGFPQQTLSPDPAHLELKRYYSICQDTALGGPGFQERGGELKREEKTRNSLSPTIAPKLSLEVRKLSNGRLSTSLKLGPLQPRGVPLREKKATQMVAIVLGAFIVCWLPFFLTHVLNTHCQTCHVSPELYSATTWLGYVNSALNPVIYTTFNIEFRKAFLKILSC
Neuronal acetylcholine receptor; alpha4/beta2, sequence (P09483 whole entry): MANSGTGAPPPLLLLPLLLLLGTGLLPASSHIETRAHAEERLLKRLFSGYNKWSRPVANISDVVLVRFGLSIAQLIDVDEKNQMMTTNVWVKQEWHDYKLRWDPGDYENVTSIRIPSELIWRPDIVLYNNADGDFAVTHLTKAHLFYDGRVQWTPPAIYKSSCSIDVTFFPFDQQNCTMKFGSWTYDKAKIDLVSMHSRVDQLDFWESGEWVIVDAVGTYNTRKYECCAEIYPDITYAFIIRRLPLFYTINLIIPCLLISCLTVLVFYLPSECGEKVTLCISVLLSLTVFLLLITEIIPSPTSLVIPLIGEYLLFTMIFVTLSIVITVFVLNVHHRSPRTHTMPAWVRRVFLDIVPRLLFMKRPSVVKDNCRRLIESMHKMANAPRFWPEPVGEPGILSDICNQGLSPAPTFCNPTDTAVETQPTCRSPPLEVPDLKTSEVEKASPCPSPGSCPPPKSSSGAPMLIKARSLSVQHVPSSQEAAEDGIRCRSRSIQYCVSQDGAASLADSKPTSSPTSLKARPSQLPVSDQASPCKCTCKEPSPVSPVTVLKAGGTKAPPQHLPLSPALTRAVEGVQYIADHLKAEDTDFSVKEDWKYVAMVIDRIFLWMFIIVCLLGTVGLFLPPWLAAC
Neuronal acetylcholine receptor; alpha4/beta2, sequence (P12390 whole entry): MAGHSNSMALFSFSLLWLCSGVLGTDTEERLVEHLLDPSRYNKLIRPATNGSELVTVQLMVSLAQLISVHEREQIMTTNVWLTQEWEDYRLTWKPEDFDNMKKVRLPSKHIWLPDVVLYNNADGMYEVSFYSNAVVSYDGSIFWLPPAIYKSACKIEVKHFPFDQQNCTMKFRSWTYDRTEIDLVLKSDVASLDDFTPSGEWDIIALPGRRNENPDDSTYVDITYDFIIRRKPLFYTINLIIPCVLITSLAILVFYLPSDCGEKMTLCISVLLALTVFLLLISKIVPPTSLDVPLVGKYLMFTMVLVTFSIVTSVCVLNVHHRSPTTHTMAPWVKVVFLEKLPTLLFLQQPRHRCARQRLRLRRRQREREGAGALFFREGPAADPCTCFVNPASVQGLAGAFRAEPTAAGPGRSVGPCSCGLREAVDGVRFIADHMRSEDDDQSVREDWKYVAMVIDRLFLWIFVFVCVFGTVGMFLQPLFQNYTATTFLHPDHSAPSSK
Substance-P receptor (Homo sapiens), sequence (P25103 whole entry): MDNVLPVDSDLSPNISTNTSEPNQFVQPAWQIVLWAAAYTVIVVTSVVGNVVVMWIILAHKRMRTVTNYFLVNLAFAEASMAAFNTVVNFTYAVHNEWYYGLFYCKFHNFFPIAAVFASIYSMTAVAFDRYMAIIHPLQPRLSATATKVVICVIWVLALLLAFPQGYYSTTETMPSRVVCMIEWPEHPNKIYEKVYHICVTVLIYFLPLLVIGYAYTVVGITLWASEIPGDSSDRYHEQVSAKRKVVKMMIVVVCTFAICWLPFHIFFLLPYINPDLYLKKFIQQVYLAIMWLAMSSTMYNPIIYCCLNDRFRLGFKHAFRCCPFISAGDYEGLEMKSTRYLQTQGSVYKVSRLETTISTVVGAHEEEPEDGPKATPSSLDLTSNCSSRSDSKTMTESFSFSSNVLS
Acetylcholinesterase, sequence (P22303 whole entry): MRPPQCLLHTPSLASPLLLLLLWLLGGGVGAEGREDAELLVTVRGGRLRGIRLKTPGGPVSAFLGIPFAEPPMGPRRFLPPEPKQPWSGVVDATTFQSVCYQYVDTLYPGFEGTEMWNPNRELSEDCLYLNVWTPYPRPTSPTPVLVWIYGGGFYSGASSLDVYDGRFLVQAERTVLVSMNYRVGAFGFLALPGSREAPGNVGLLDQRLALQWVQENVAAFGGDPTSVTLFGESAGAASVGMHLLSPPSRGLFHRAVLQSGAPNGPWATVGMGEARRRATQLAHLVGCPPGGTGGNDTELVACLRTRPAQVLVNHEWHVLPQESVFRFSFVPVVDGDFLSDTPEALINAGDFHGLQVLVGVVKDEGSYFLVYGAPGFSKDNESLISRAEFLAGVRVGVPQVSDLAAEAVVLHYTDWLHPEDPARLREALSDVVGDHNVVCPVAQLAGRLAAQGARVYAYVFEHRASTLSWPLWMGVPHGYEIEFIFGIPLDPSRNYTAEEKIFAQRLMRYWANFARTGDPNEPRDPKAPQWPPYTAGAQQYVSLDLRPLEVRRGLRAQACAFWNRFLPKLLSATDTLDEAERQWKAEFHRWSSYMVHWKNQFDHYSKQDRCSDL
Alpha-2C adrenergic receptor (Homo sapiens), sequence (P18825 whole entry): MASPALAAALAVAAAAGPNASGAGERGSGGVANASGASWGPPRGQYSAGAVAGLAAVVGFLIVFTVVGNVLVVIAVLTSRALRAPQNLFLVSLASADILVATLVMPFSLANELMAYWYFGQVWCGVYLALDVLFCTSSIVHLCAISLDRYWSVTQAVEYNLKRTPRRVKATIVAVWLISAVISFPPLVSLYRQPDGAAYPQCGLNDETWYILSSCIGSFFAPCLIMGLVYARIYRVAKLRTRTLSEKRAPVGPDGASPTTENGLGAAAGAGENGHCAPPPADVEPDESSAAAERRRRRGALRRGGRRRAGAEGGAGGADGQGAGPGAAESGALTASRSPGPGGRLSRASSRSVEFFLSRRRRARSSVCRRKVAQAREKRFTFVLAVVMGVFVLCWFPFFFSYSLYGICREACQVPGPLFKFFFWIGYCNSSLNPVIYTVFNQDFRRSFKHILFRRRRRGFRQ
Type-1 angiotensin II receptor (Homo sapiens), sequence (P30556 whole entry): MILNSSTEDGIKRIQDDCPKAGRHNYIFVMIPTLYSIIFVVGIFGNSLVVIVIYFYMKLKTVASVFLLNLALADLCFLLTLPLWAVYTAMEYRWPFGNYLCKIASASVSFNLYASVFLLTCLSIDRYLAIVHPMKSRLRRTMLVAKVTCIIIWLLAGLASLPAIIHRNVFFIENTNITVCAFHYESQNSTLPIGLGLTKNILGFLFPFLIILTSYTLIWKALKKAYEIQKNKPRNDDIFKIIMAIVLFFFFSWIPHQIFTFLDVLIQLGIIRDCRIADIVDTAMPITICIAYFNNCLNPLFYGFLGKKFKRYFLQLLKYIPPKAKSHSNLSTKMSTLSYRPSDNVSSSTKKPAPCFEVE
Muscarinic acetylcholine receptor M1 (Homo sapiens), sequence (P11229 whole entry): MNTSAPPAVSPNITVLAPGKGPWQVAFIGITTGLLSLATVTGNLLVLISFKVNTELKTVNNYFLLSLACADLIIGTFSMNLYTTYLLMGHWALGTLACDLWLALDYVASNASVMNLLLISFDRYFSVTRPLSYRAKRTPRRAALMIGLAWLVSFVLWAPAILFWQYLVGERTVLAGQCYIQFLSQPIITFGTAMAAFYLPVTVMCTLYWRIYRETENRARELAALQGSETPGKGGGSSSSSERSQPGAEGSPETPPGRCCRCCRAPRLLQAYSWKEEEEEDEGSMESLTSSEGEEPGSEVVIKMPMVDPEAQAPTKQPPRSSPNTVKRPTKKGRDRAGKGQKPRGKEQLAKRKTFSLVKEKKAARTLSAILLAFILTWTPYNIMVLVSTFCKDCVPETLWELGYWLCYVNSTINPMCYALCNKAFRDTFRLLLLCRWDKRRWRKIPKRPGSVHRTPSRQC
Sigma intracellular receptor 2 (Homo sapiens), sequence (Q5BJF2 whole entry): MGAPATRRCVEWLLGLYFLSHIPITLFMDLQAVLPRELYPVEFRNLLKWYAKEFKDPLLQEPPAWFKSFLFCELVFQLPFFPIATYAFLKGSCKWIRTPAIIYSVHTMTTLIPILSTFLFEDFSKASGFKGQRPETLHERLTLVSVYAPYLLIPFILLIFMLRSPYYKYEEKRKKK

## CN1C(=O)CC[C@H]1c1cccnc1 [COTININE]
D(3) dopamine receptor
  inhibition: < 50%
[1]
  EC50: 21 µM
[2]
  inhibition: < 50%
Homo sapiens [3]
  inhibition: < 50%
Homo sapiens [4]
  inhibition: < 50%
[5]
  inhibition: < 50%
[6]
  inhibition: < 50%
Acetylcholinesterase
  inhibition: < 50%
[7]
  inhibition: < 50%
hERG (KCNH2)
  inhibition at 10 µM: < 50%
Homo sapiens [8]
  inhibition: < 50%
[9]
  inhibition: < 50%
[10]
  inhibition: < 50%
[11]
  inhibition: < 50%
Homo sapiens [12]
  inhibition: < 50%
[13]
  inhibition: < 50%
[14]
  inhibition: < 50%
[15]
  inhibition: < 50%
[16]
  inhibition: < 50%
Homo sapiens [17]
  inhibition: < 50%
[18]
  Activity: >=20%
[19]
  inhibition: < 50%
[20]
  inhibition: < 50%
[21]
  inhibition: < 50%
[22]
  inhibition: < 50%
[23]
  inhibition: < 50%
L-type calcium channel
  inhibition at 10 µM: < 50%
Homo sapiens [24]
  inhibition: < 50%
[25]
  inhibition: < 50%
[26]
  inhibition: < 50%
[27]
  inhibition: < 50%
Homo sapiens [28]
  inhibition: < 50%
[29]
  inhibition: < 50%
Homo sapiens [30]
  inhibition: < 50%
Homo sapiens [31]
  inhibition: < 50%
[32]
  inhibition: < 50%
[33]
  half-life: 19 h
[34]
  inhibition: < 50%
Histamine H3 receptor
  inhibition: < 50%
Homo sapiens [35]
  inhibition: < 50%
[36]
  inhibition: < 50%
[37]
  inhibition: < 50%
[38]
  inhibition: < 50%
